What all share (type): cell-based
Assay [1] has as its system EBC-1 cell line (high c-Met-expressing). The assay is described as follows: In vitro cytotoxicity (CellTiter-Glo), EBC-1. Particulars: 4 nights incubation; n = 2. The protocol: (§1) Cytotoxicity of the ADCs from Example 3 comprising either MCvcPABC-MMAE or MTvcCompound 1 was tested in vitro against a variety of tumor cell lines expressing the target surface antigen (c-Met) as described below. The following cell lines were used (Table 9.1).
(§2) Each of the cell lines shown in Table 9.1 was grown in the respective complete growth medium until assay day. After removal from the culture vessels using Trypsin-EDTA, cells were counted using a Scepter™ Cell Counter (Sigma-Aldrich Canada, Oakville, ON). Cells were diluted in complete growth medium to 20,000 cells/mL, such that 50 μL/well in 384-well plates equaled 1,000 cells/well, unless otherwise specified. All ADCs were diluted to 15 nM starting concentration in complete growth medium (RPMI 1640) followed by a 1:3 dilution in sterile 96-well dilution plates (final volume 200 μL/well). Samples (20 μL/well) were transferred into a 384-well plate in duplicate. Plates were then seeded with 20,000 cell/mL suspension of test cell line (50 μL/well), unless otherwise specified. […] After incubation, cell viability was quantified by adding 1×CellTiter-Glo® reagent (Promega Corporation, Madison, WI) at 10 μL/well. After incubating for 30 min in the dark, luminescence was measured using a Synergy™ H1 Hybrid Multi-Mode Reader (BioTek Instruments Inc., Winooski, VT). Data was analyzed with Prism 7 software (GraphPad Prism Software).
(ATP-based viability assays read luminescence as a measure of living cells.)

The subject of assay [2] is BT-20 cell line (low c-Met expressing). The assay is described as follows: In vitro cytotoxicity (CellTiter-Glo), BT-20. Particulars: 4 nights incubation; n = 2; IC = cytotoxicity shown but curve not optimal for accurate EC50. The protocol:
as §1, §2

Assay [3] deals with H292 cell line (mid c-Met expressing). The assay can be described thus: In vitro cytotoxicity (CellTiter-Glo), H292. Particulars: 4 nights incubation; n = 2; IC = cytotoxicity shown but curve not optimal for accurate EC50. The protocol: as §1, §2
Assay [4] has as its system HCC827 cell line (mid c-Met expressing). The assay is described as follows: In vitro cytotoxicity (CellTiter-Glo), HCC827. Particulars: 4 nights incubation; n = 2. The method, then:
as §1, §2

SMILES strings stand for the structures. Square brackets hold non-standard residues; d marks the D form. Peptide text beside a SMILES is read from it. * marks the point of attachment. Dolaproine = CO[C@@H]([C@@H]1CCCN1)[C@@H](C)C(=O)O; Dil = CC[C@H](C)[C@H](NC)[C@@H](CC(=O)O)OC; X1 = C[C@@H](N*)[C@@H](O)c1ccccc1; NMeV = CN[C@H](C(=O)O)C(C)C

A word on the EC50: it is the concentration that produces a half-maximal response. Take `CC[C@H](C)[C@@H]([C@@H](CC(=O)N1CCC[C@H]1[C@H](OC)[C@@H](C)C(=O)N[C@H](C)[C@@H](O)c1ccccc1)OC)N(C)C(=O)[C@@H](NC(=O)[C@@H](NC)C(C)C)C(C)C` [MMAE] (H-[NMeV]V[Dil][Dolaproine]-X1): the EC50 in assay [1] was determined as 0.16 nM; in assay [2] it was 0.13 nM; in assay [3], 0.11 nM; in assay [4] it was 0.36 nM.

These data come from patent publication US20260042847A1, “CYSTEINE ENGINEERED ANTIBODY CONSTRUCTS, CONJUGATES AND METHODS OF USE” (ZYMEWORKS INC., priority 2021, published 2026).
